Test results from US8247377B2, “Non-steroidal glucocorticoid inhibitors and their use in treating inflammation, allergy and auto-immune conditions” (Glaxo Group Limited, priority 2006, dated 2012).

What was measured:
NFκB = NFκB agonist assay in A549 SPAP cells; type: cell-based; details: Homo sapiens; for Emax: A549, A549 SPAP cells, >85% = full agonist, ≧20% = partial or full agonist, read-out: average maximum asymptote in the NFkB assay; for IC50: A549 SPAP cells, TNFα 3.2 ng/ml, read-out: pIC50 for the NFkB assay (converted);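 as to average maximum asymptote in the NFkB assay: maximum inhibition of the TNFα-induced NFκB-driven signal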
Procedure, shortened: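 A549 cells stably carrying an ELAM/NFκB-driven SPAP reporter were pre-incubated 1 h at 37° C with compound, then stimulated with TNFα (3.2 ng/ml final) for 15 h. SPAP activity read colorimetrically with pNPP at 405 nm after ~1 h; pIC50 estimated from dose-response curves.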

MMTV promoter = assay: MMTV agonist assay in A549 MMTV cells; type: cell-based; details: Homo sapiens, A549, 6 h, >85% = full agonist, >20% and <85% = partial or efficacy selective agonist, read-out: average maximum asymptote in the MMTV agonist assay
Description: Human lung carcinoma A549 cell line (ECACC No. 86012804) has been stably transfected in house with a plasmid containing a renilla luciferase reporter with an MMTV promoter. Stimulation of the cell line with GR agonists results in intracellular signal transduction and ultimately translocation of GR into the nucleus. This activates the inserted DNA sequence resulting in transcription of the integrated luciferase gene, which is quantified using a light emission. The stably transfected cell line was grown as a monolayer in DMEM supplemented with FCS-HI (10%), Non-essential amino acids (1%), L-Glutamine (2 mM), Pen/Strep (1%) and Geneticin (50 mg/ml).
A 90% confluent T175 flask of A549 MMTV cells was harvested by centrifugation for 5 min at 200 g, resuspended in assay buffer (DMEM supplemented with 10% FCS 2×HI, 2 mM Glutamax, Non essential amino acids and 25 mM HEPES) and diluted to 0.1×10^6/ml. 70 μl of cell solution was dispensed to each well of white Nunc 384-well plates, containing compound at the required concentration. Plates were incubated for 6 h at 37° C., 95% humidity, 5% CO2. Plates were equilibrated to room temperature for 1 h prior to the addition of 10 μl of Renilla substrate to each well of assay plates. The plates were covered to protect the reagents from light, and then incubated at room temperature for approximately 15 mins before reading them on a Viewlux. Dose response curves were constructed from which pEC50 and maximum asymptote values were estimated.

| SMILES | Emax (NFκB) | IC50 (NFκB) | Emax (MMTV promoter) |
| --- | --- | --- | --- |
| CCN(CC(O)(CNC(=O)c1cnn(-c2cccc(F)c2)c1N)C(F)(F)F)C(=O)c1c(F)cccc1F (racemic) [Example 38 (racemic), 5-amino-N-(2-{[[(2,6-difluorophenyl)carbonyl](ethyl)amino]methyl}-3,3,3-trifluoro-2-hydroxypropyl)-1-(3-fluorophenyl)-1H-pyrazole-4-carboxamide] | > 85% | < 1000 nM | > 85% |
| CCN(CC(O)(CNC(=O)c1cnn(-c2cc(F)cc(F)c2)c1N)C(F)(F)F)C(=O)c1c(F)cccc1F (racemic) [Example 35 (racemic), 5-amino-1-(3,5-difluorophenyl)-N-(2-{[[(2,6-difluorophenyl)carbonyl](ethyl)amino]methyl}-3,3,3-trifluoro-2-hydroxypropyl)-1H-pyrazole-4-carboxamide] | > 85% | < 1000 nM | > 85% |
| Nc1c(C(=O)NCC(O)(CN(CCF)C(=O)c2c(Cl)cccc2OC(F)F)C(F)(F)F)cnn1-c1ccc(F)cc1 (racemic) [Example 31 (racemic), 5-amino-N-(2-{[({2-chloro-6-[(difluoromethyl)oxy]phenyl}carbonyl)(2-fluoroethyl)amino]methyl}-3,3,3-trifluoro-2-hydroxypropyl)-1-(4-fluorophenyl)-1H-pyrazole-4-carboxamide] | > 85% | < 1000 nM | > 85% |
| CCN(CC(O)(CNC(=O)c1cnn(-c2ccc(F)cc2)c1N)C(F)(F)F)C(=O)c1ccccc1S(C)(=O)=O (single isomer, unassigned) [Example 10 Enantiomer 1, 5-Amino-N-{2-[(ethyl{[2-(methylsulfonyl)phenyl]carbonyl}amino)methyl]-3,3,3-trifluoro-2-hydroxypropyl}-1-(4-fluorophenyl)-1H-pyrazole-4-carboxamide] | > 85% | < 1000 nM | > 85% |
| Nc1c(C(=O)NCC(O)(CN(CCF)C(=O)c2c(F)cccc2F)C(F)(F)F)cnn1-c1ccc(F)cc1 (racemic) [Example 17 (racemic), 5-amino-N-(2-{[[(2,6-difluorophenyl)carbonyl](2-fluoroethyl)amino]methyl}-3,3,3-trifluoro-2-hydroxypropyl)-1-(4-fluorophenyl)-1H-pyrazole-4-carboxamide] | > 85% | < 1000 nM | > 85% |
| CCN(CC(O)(CNC(=O)c1cnn(-c2ccc(F)cc2)c1N)C(F)(F)F)C(=O)c1ccccc1S(C)(=O)=O (racemic) [Example 10 (racemic), 5-Amino-N-{2-[(ethyl{[2-(methylsulfonyl)phenyl]carbonyl}amino)methyl]-3,3,3-trifluoro-2-hydroxypropyl}-1-(4-fluorophenyl)-1H-pyrazole-4-carboxamide] | > 85% | < 1000 nM | > 85% |
| Nc1c(C(=O)NCC(O)(CNC(=O)c2c(F)cccc2Br)C(F)(F)F)cnn1-c1ccc(F)cc1 (single isomer, unassigned) [Example 13 Enantiomer 1, 5-Amino-N-[2-({[(2-bromo-6-fluorophenyl)carbonyl]amino}methyl)-3,3,3-trifluoro-2-hydroxypropyl]-1-(4-fluorophenyl)-1H-pyrazole-4-carboxamide] | ≥ 20% | < 1000 nM | 20 to 85% |
| CCN(CC(O)(CNC(=O)c1cnn(-c2ccc(Cl)cc2)c1N)C(F)(F)F)C(=O)c1c(F)cccc1F (racemic) [Example 39 (racemic), 5-amino-1-(4-chlorophenyl)-N-(2-{[[(2,6-difluorophenyl)carbonyl](ethyl)amino]methyl}-3,3,3-trifluoro-2-hydroxypropyl)-1H-pyrazole-4-carboxamide] | > 85% | < 1000 nM | > 85% |
| Nc1c(C(=O)NCC(O)(CNC(=O)c2c(Br)cccc2Br)C(F)(F)F)cnn1-c1ccc(F)cc1 (racemic) [Example 11 (racemic), 5-Amino-N-[2-({[(2,6-dibromophenyl)carbonyl]amino}methyl)-3,3,3-trifluoro-2-hydroxypropyl]-1-(4-fluorophenyl)-1H-pyrazole-4-carboxamide] | ≥ 20% | < 1000 nM | 20 to 85% |
| Nc1c(C(=O)NCC(O)(CNC(=O)c2c(C(F)F)cccc2C(F)F)C(F)(F)F)cnn1-c1ccc(F)cc1 (single isomer, unassigned) [Example 43 Enantiomer 1, 5-Amino-N-{2-[({[2,6-bis(difluoromethyl)phenyl]carbonyl}amino)methyl]-3,3,3-trifluoro-2-hydroxypropyl}-1-(4-fluorophenyl)-1H-pyrazole-4-carboxamide] | ≥ 20% | < 1000 nM | 20 to 85% |
| Nc1c(C(=O)NCC(O)(CNC(=O)c2c(Cl)cccc2OC(F)F)C(F)(F)F)cnn1-c1ccc(F)cc1 (single isomer, unassigned) [Example 14 Enantiomer 1, 5-Amino-N-(2-{[({2-chloro-6-[(difluoromethyl)oxy]phenyl}carbonyl)amino]methyl}-3,3,3-trifluoro-2-hydroxypropyl)-1-(4-fluorophenyl)-1H-pyrazole-4-carboxamide] | ≥ 20% | < 1000 nM | 20 to 85% |
| CN(CC(O)(CNC(=O)c1cnn(-c2ccc(F)cc2)c1N)C(F)(F)F)C(=O)c1c(F)cccc1F (racemic) [Example 8 (racemic), 5-Amino-N-(2-{[[(2,6-difluorophenyl)carbonyl](methyl)amino]methyl}-3,3,3-trifluoro-2-hydroxypropyl)-1-(4-fluorophenyl)-1H-pyrazole-4-carboxamide] | > 85% | < 1000 nM | > 85% |
| CCN(CC(O)(CNC(=O)c1cnn(-c2ccccc2F)c1N)C(F)(F)F)C(=O)c1c(F)cccc1F (racemic) [Example 42 (racemic), 5-amino-N-(2-{[[(2,6-difluorophenyl)carbonyl](ethyl)amino]methyl}-3,3,3-trifluoro-2-hydroxypropyl)-1-(2-fluorophenyl)-1H-pyrazole-4-carboxamide] | > 85% | < 1000 nM | > 85% |
| Nc1c(C(=O)NCC(O)(CNC(=O)c2c(F)cccc2Br)C(F)(F)F)cnn1-c1ccc(F)cc1 (racemic) [Example 13 (racemic), 5-Amino-N-[2-({[(2-bromo-6-fluorophenyl)carbonyl]amino}methyl)-3,3,3-trifluoro-2-hydroxypropyl]-1-(4-fluorophenyl)-1H-pyrazole-4-carboxamide] | ≥ 20% | < 1000 nM | 20 to 85% |
| CCN(CC(O)(CNC(=O)c1cnn(-c2ccc(F)cc2F)c1N)C(F)(F)F)C(=O)c1c(F)cccc1F (racemic) [Example 34 (racemic), 5-amino-1-(2,4-difluorophenyl)-N-(2-{[[(2,6-difluorophenyl)carbonyl](ethyl)amino]methyl}-3,3,3-trifluoro-2-hydroxypropyl)-1H-pyrazole-4-carboxamide] | > 85% | < 1000 nM | > 85% |
| CN(CC(O)(CNC(=O)c1cnn(-c2ccc(F)cc2)c1N)C(F)(F)F)C(=O)c1c(Cl)cccc1Cl (racemic) [Example 1 (racemic), 5-Amino-N-(2-{[[(2,6-dichlorophenyl)carbonyl](methyl)amino]methyl}-3,3,3-trifluoro-2-hydroxypropyl)-1-(4-fluorophenyl)-1H-pyrazole-4-carboxamide] | > 85% | < 1000 nM | > 85% |
